Test results taken from ChEMBL document CHEMBL5050844 (2019).

Columns and labels:
[1] = target: T1, E3 ubiquitin-protein ligase CBL-B (Homo sapiens, UniProt Q13191); experiment: Binding affinity towards N-terminal biotinylated Avi-tagged human CBL-B (36 to 427 residues) measured by surface plasmon resonance assay
[2] = target: T1, E3 ubiquitin-protein ligase CBL-B; experiment: Inhibition of N-terminal Avi-tagged human CBL-B (36 to 427 residues) incubated with 60 nM Src kinase for 1.5 hrs followed by incubation with fluorescently labeled UbcH5B-Ub for 1 hr and measured by TR-FRET assay; assay type: single protein
[3] = Induction of anti-CD3/CD28 antibodies-stimulated human T cell activation at 1 uM assessed fold increase in CD25 expression measured by ELISA assay; assay type: functional, T cell line
[4] = Induction of anti-CD3/CD28 antibodies-stimulated human T cell activation at 0.3 uM assessed fold increase in IL-2 secretion measured by ELISA assay; assay type: functional, T cell line
[5] = Induction of anti-CD3 antibodies-stimulated human T cell activation at 1 uM assessed fold increase in IL-2 secretion measured by ELISA assay; assay type: functional, T cell line; note: reference of the scale not given here
[6] = Induction of anti-CD3/CD28 antibodies-stimulated human T cell activation at 0.3 uM assessed fold increase in CD25 expression measured by ELISA assay; assay type: functional, T cell line
[7] = Induction of anti-CD3/CD28 antibodies-stimulated human T cell activation at 1 uM assessed fold increase in IL-2 secretion measured by ELISA assay; assay type: functional, T cell line
[8] = Induction of anti-CD3 antibodies-stimulated human T cell activation at 1 uM assessed fold increase in CD25 expression measured by ELISA assay; assay type: functional, T cell line; note: reference of the scale not given here
[9] = Induction of anti-CD3/CD28 antibodies-stimulated human T cell activation at 4 uM assessed fold increase in IL-2 secretion measured by ELISA assay; assay type: functional, T cell line
[10] = Induction of anti-CD3 antibodies-stimulated human T cell activation at 8 uM assessed fold increase in CD25 expression measured by ELISA assay; assay type: functional, T cell line; note: reference of the scale not given here
[11] = Induction of anti-CD3/CD28 antibodies-stimulated human T cell activation at 4 uM assessed fold increase in CD25 expression measured by ELISA assay; assay type: functional, T cell line
[12] = Induction of anti-CD3 antibodies-stimulated human T cell activation at 8 uM assessed fold increase in IL-2 secretion measured by ELISA assay; assay type: functional, T cell line; note: reference of the scale not given here

T1 sequence (Q13191 whole entry, the tested form may be a part): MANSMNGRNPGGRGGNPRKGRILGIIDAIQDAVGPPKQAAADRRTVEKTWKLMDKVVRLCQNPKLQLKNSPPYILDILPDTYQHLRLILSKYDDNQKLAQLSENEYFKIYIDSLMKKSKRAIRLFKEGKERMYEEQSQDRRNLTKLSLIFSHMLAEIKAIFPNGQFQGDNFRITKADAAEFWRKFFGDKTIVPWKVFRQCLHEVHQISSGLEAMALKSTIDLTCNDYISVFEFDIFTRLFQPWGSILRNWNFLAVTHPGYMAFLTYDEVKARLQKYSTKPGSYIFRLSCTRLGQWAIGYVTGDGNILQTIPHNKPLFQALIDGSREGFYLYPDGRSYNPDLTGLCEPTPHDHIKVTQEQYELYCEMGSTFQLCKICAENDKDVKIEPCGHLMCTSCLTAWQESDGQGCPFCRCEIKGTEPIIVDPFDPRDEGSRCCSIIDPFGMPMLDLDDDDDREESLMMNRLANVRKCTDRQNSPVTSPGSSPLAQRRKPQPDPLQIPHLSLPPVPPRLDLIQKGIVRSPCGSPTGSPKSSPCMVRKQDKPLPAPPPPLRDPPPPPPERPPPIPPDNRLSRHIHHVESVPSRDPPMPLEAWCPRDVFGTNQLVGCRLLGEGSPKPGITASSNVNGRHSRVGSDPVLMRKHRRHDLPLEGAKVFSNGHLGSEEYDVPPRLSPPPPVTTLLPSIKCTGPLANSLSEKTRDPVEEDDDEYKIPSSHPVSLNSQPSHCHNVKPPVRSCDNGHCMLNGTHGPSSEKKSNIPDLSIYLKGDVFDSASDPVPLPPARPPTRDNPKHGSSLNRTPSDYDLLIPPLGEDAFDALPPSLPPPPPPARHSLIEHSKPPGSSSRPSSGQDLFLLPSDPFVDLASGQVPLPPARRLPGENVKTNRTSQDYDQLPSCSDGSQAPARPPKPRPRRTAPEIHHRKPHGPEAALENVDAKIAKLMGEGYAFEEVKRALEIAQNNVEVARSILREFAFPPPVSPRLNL

SMILES | Kd [1] | IC50 [2] | fold change (FC) [3] | fold change (FC) [4] | fold change (FC) [5] | fold change (FC) [6] | fold change (FC) [7] | fold change (FC) [8] | fold change (FC) [9] | fold change (FC) [10] | fold change (FC) [11] | fold change (FC) [12]
C[C@@H](Cc1nncn1C)c1ccnc(N2Cc3c(cccc3C(F)(F)F)C2=O)c1 | > 10 µM |  |  |  |  |  |  |  |  |  |  | 
C[C@H](c1cc2c(c(C(F)(F)F)c1)CN(c1cccc(C3(C(F)(F)c4nncn4C)COC3)c1)C2=O)N1CC[C@H](F)C1 | < 0.1 µM | < 0.1 µM | >=1.76 | >=7.5 | >=0.201 | >=1.76 | >=7.5 | >=1.001 |  |  |  | 
Cn1cnnc1CC1(c2cccc(NC(=O)c3cc(Cn4ccnn4)nc(C4CC4)n3)c2)COC1 | < 0.1 µM | < 0.1 µM | 1.31 | 1.01 | 0.101 | 1.01 | 2.51 | 0.801 |  |  |  | 
C[C@H](Cc1nnco1)c1cccc(N2Cc3c(cccc3C(F)(F)F)C2=O)c1 | > 10 µM |  |  |  |  |  |  |  |  |  |  | 
CC(O)C1CN(C(=O)c2ccnc(C(=O)Nc3cccc([C@H](C)Cc4nncn4C)c3)c2)C1 (some centres not stated) | < 0.1 µM |  |  |  |  |  |  |  |  |  |  | 
C=CCC(Sc1nncn1C)c1cccc(NC(=O)c2cc3ccccc3cn2)c1 (configuration not stated) | > 10 µM |  |  |  |  |  |  |  |  |  |  | 
C[C@H](Cc1nncn1C)c1cccc(N2Cc3c(cc(CN4CC[C@H](O)C4)cc3C(F)(F)F)C2=O)c1 | < 0.1 µM | < 0.1 µM |  |  |  |  |  |  |  |  |  | 
CCn1cnnc1C[C@H](C)c1cccc(NC(=O)c2cc(S(C)(=O)=O)cc(C3CC3)n2)c1 | ≥ 3 µM | ≥ 3 µM |  |  |  |  |  |  |  |  |  | 
C=CCC(Sc1nncn1C)c1cccc(NC(=O)c2ccc3ccccc3n2)c1 (configuration not stated) | > 10 µM |  |  |  |  |  |  |  |  |  |  | 
CC(c1cccc(N2Cc3c(cccc3C(F)(F)F)C2=O)c1)C(F)(F)c1nncn1C (configuration not stated) | < 0.1 µM |  |  |  |  |  |  |  |  |  |  | 
Cn1cnnc1C(F)(F)[C@](C)(F)c1cccc(N2Cc3c(cc(CN4CC[C@H](C#N)C4)cc3C(F)(F)F)C2=O)c1 |  | < 0.1 µM | 1.31 | 5 | >=0.201 | 1.01 | >=7.5 | >=1.001 | >=7.5 | >=1.001 | 1.31 | >=0.201
C[C@H](Sc1nncn1C)c1ccnc(NC(=O)c2cc(C(F)(F)F)c(Cl)cn2)c1 | > 10 µM |  |  |  |  |  |  |  |  |  |  | 
C[C@H](Cc1ncnn1C)c1cccc(N2Cc3c(cccc3C(F)(F)F)C2=O)c1 | > 10 µM |  |  |  |  |  |  |  |  |  |  | 
C[C@@H](Sc1nncn1C)c1ccnc(N2Cc3c(cccc3C(F)(F)F)C2=O)c1 | > 10 µM |  |  |  |  |  |  |  |  |  |  | 
Cc1cc(C(=O)Nc2cccc(C3(Cc4nncn4C)COC3)c2)nc(C2CCC2)n1 |  | < 0.1 µM | 1.01 | 1.01 | 0.151 | 1.01 | 5 | 0.801 | >=7.5 | >=1.001 | 1.31 | >=0.201
C[C@H](Cc1nncn1C)c1cccc(N2Cc3c(cc([C@@H](C)N4CC(O)C4)cc3C(F)(F)F)C2=O)c1 |  | < 0.1 µM | 1.31 | 2.51 | >=0.201 | 1.01 | 5 | 0.801 | >=7.5 | >=1.001 | 1.31 | >=0.201
C[C@H](Cc1nncn1C)c1cccc(NC(=O)c2cc3cc(N4CCN(C)C(=O)C4)ccc3cn2)c1.O=C(O)C(F)(F)F |  | < 0.1 µM | 1.31 | 5 | >=0.201 | 1.31 | 5 | <=0.6 | >=7.5 | >=1.001 | 1.51 | >=0.201
Cc1cc(C(=O)Nc2cccc([C@H](C)Cc3nocc3C)c2)nc(C2CC2)n1 |  | < 0.1 µM | 1.01 | 1.01 | 0.051 | 1.01 | 2.51 | 0.801 | 5 | >=1.001 | 1.01 | >=0.201
Cn1cnnc1CC1(c2cccc(N3Cc4c(cc(CN5C[C@@H](F)[C@@H](F)C5)cc4C(F)(F)F)C3=O)c2)COC1 |  | < 0.1 µM | 1.31 | >=7.5 | 0.151 | 1.31 | >=7.5 | 0.801 | >=7.5 | >=1.001 | 1.51 | >=0.201
Cn1cnnc1CC1(c2cccc(N3Cc4c(cc(CN5CCCC5=O)cc4C(F)(F)F)C3=O)c2)COC1 |  | < 0.1 µM | 1.01 | 1.01 | 0.151 | 1.01 | 1.01 | >=1.001 | 2.51 | >=1.001 | 1.01 | >=0.201
C[C@H]1CN(C)CCN1c1cc2c(c(C(F)(F)F)c1)CN(c1cccc([C@@](C)(F)C(F)(F)c3nncn3C)c1)C2=O |  | < 0.1 µM | 1.01 | 1.01 | 0.101 | 1.01 | 5 | >=1.001 | >=7.5 | >=1.001 | 1.31 | >=0.201
C[C@H]1C=CCN1Cc1cc2c(c(C(F)(F)F)c1)CN(c1cccc(C3(Cc4nncn4C)COC3)c1)C2=O |  | < 0.1 µM | 1.51 | >=7.5 | >=0.201 | 1.31 | >=7.5 | >=1.001 | >=7.5 | >=1.001 | 1.51 | >=0.201

Continued, in another order:

Kd [1] | IC50 [2] | SMILES | fold change (FC) [3] | fold change (FC) [4] | fold change (FC) [5] | fold change (FC) [6] | fold change (FC) [7] | fold change (FC) [8] | fold change (FC) [9] | fold change (FC) [10] | fold change (FC) [11] | fold change (FC) [12]
> 10 µM |  | C[C@@H](Sc1nncn1C)c1ccc(F)c(NC(=O)c2cccc(C(F)(F)F)n2)c1 |  |  |  |  |  |  |  |  |  | 
> 10 µM |  | C[C@H](Sc1nncn1C)c1cccc(NC(=O)c2cc3cc(OCC(=O)O)ccc3cn2)c1 |  |  |  |  |  |  |  |  |  | 
> 10 µM |  | C[C@H](Sc1nncn1C)c1cccc(NC(=O)c2cccc(C(F)(F)F)c2)c1 |  |  |  |  |  |  |  |  |  | 
> 10 µM | ≥ 3 µM | CC1=CC(C(=O)Nc2cccc([C@H](C)Sc3nncn3C)c2)=NC(=O)C1 |  |  |  |  |  |  |  |  |  | 
> 10 µM |  | C[C@H](Sc1nncn1C)c1cccc(NC(=O)c2cc(C(=O)N3CCC[C@@H](O)C3)ccn2)c1 |  |  |  |  |  |  |  |  |  | 
> 10 µM |  | Cc1cnc(C(=O)Nc2cccc([C@H](C)Sc3nncn3C)c2)cc1C(F)(F)F |  |  |  |  |  |  |  |  |  | 
> 10 µM |  | COc1c(C(=O)Nc2cccc([C@H](C)Sc3nncn3C)c2)cccc1C(F)(F)F |  |  |  |  |  |  |  |  |  | 
> 10 µM |  | C[C@H](Sc1nncn1C)c1cccc(NC(=O)c2cc(C(=O)N3CCCC3)ccn2)c1 |  |  |  |  |  |  |  |  |  | 
> 10 µM |  | C[C@@H](Sc1nncn1C)c1cccc(NC(=O)c2cc(C(=O)N3CCC(O)C3)ccn2)c1 (single isomer, unassigned) |  |  |  |  |  |  |  |  |  | 
> 10 µM |  | C[C@H](Sc1nncn1C)c1cccc(NC(=O)c2cc(C(=O)N3CCC[C@H](O)C3)ccn2)c1 |  |  |  |  |  |  |  |  |  | 
> 10 µM |  | CC(C)c1cccc(C(=O)Nc2cccc([C@H](C)Sc3nncn3C)c2)c1 |  |  |  |  |  |  |  |  |  | 
> 10 µM |  | C[C@H](Sc1nncn1C)c1cccc(NC(=O)c2cc(C(=O)N3C[C@@H](O)C[C@@H]3C)ccn2)c1 |  |  |  |  |  |  |  |  |  | 
> 10 µM |  | C[C@H](Sc1nncn1C)c1cccc(NC(=O)c2cc(C(=O)N3C[C@H](O)C[C@H]3C)ccn2)c1 |  |  |  |  |  |  |  |  |  | 
 | < 0.1 µM | COc1ccc(C(=O)Nc2cccc([C@H](C)Sc3nncn3C)c2)nc1C1CC1 | 1.01 | 1.01 | <=0.05 | 1.01 | 1.01 | 0.601 | 2.51 | >=1.001 | 1.01 | 0.101
> 10 µM |  | C[C@H](Sc1nncn1C)c1cccc(NC(=O)c2cc(NS(=O)(=O)CCO)ccn2)c1 |  |  |  |  |  |  |  |  |  | 
 | < 0.1 µM | C[C@H](Cc1nncn1C)c1cccc(NC(=O)c2ccnc(C3CC3)n2)c1 | 1.31 | 2.51 | >=0.201 | 1.01 | 5 | >=1.001 | >=7.5 | >=1.001 | 1.51 | >=0.201
> 10 µM |  | CC(Sc1nncn1C)c1ccc(F)c(NC(=O)c2ccc3ccccc3n2)c1 (configuration not stated) |  |  |  |  |  |  |  |  |  | 
 | < 0.1 µM | Cc1ccc(C(=O)Nc2cccc([C@H](C)Sc3nncn3C)c2)nc1C1CC1 | 1.01 | 1.01 | <=0.05 | 1.01 | 2.51 | 0.601 | >=7.5 | 0.801 | 1.01 | 0.151
